# US20170101392A1, “PROCESSES FOR THE PREPARATION OF PESTICIDAL COMPOUNDS” (Dow AgroSciences LLC, priority 2013, published 2017)
# Columns and labels:
# [1] = test system: Green Peach Aphid ("GPA") (Myzus Persicae) (MYZUPE); test: Bioassay on green peach aphid (GPA), foliar spray on infested cabbage seedlings; format: in vivo; conditions: 72 h, 200 ppm spray on cabbage leaves, live aphids counted after three days, Abbott's correction, read-out: MYZUPE rating (% Control of Mortality)
# Description: Bioassays on Green Peach Aphid (“GPA”) (Myzus Persicae) (MYZUPE.)
# GPA is the most significant aphid pest of peach trees, causing decreased growth, shriveling of leaves, and the death of various tissues. It is also hazardous because it acts as a vector for the transport of plant viruses, such as potato virus Y and potato leafroll virus to members of the nightshade/potato family Solanaceae, and various mosaic viruses to many other food crops. GPA attacks such plants as broccoli, burdock, cabbage, carrot, cauliflower, daikon, eggplant, green beans, lettuce, macadamia, papaya, peppers, sweet potatoes, tomatoes, watercress and zucchini among other plants. GPA also attacks many ornamental crops such as carnations, chrysanthemum, flowering white cabbage, poinsettia and roses. GPA has developed resistance to many pesticides.
# Several molecules disclosed herein were tested against GPA using procedures described below.
# Cabbage seedling grown in 3-in pots, with 2-3 small (3-5 cm) true leaves, were used as test substrate. The seedlings were infested with […] (wingless adult and nymph stages) one day prior to chemical application. Four posts with individual seedlings were used for each treatment. Test compounds (2 mg) were dissolved in 2 mL of acetone/methanol (1:1) solvent, forming stock solutions of 1000 ppm test compound. The stock solutions were diluted 5× with 0.025% Tween 20 in water to obtain the solution at 200 ppm test compound. A hand-held aspirator-type sprayer was used for spraying a solution to both sides of the cabbage leaves until runoff. Reference plants (solvent check) were sprayed with the diluent only containing 20% by volume acetone/methanol (1:1) solvent. Treated plants were held in a holding room for three days at approximately 25° C. and ambient relative humidity (RH) prior to grading. Evaluation was conducted by counting the number of live aphids per plant under a microscope. Percent Control was measured by using Abbott's correction formula (W. S. Abbott, “A Method of Computing the Effectiveness of an Insecticide” J. Econ. Entomol 18 (1925), pp. 265-267) as follows.
# Corrected % Control=100*(X−Y)/X • where • X=No. of live aphids on solvent check plants and • Y=No. of live aphids on treated plants
# The results are indicated in the table entitled “Table 1: GPA (MYZUPE) and sweetpotato whitefly-crawler (BEMITA) Rating Table”.
# [2] = test system: Sweetpotato Whitefly Crawler (Bemisia Tabaci) (BEMITA); test: Bioassay on sweetpotato whitefly crawler, foliar spray on infested cotton plants; format: in vivo; conditions: 200 ppm spray on cotton leaves, live nymphs counted after 8-9 days, Abbott's correction, read-out: BEMITA rating (% Control of Mortality)
# Description: Bioassays on Sweetpotato Whitefly Crawler (Bemisia Tabaci) (BEMITA.)
# The sweetpotato whitefly, Bemisia tabaci (Gennadius), has been recorded in the United States since the late 1800s. In 1986 in Florida, Bemisia tabaci became an extreme economic pest. Whiteflies usually feed on the lower surface of their host plant leaves. From the egg hatches a minute crawler stage that moves about the leaf until it inserts its microscopic, threadlike mouthparts to feed by sucking sap from the phloem. Adults and nymphs excrete honeydew (largely plant sugars from feeding on phloem), a sticky, viscous liquid in which dark sooty molds grow. Heavy infestations of adults and their progeny can cause seedling death, or reduction in vigor and yield of older plants, due simply to sap removal. The honeydew can stick cotton lint together, making it more difficult to gin and therefore reducing its value. Sooty mold grows on honeydew-covered substrates, obscuring the leaf and reducing photosynthesis, and reducing fruit quality grade. It transmitted plant-pathogenic viruses that had never affected cultivated crops and induced plant physiological disorders, such as tomato irregular ripening and squash silverleaf disorder. Whiteflies are resistant to many formerly effective insecticides.
# Cotton plants grown in 3-inch pots, with 1 small (3-5 cm) true leaf, were used at test substrate. The plants were placed in a room with whitely adults. Adults were allowed to deposit eggs for 2-3 days. After a 2-3 day egg-laying period, plants were taken from the adult whitefly room. Adults were blown off leaves using a hand-held Devilbliss sprayer (23 psi). Plants with egg infestation (100-300 eggs per plant) were placed in a holding room for 5-6 days at 82° F. and 50% RH for egg hatch and crawler stage to develop. Four cotton plants were used for each treatment. Compounds (2 mg) were dissolved in 1 mL of acetone solvent, forming stock solutions of 2000 ppm. The stock solutions were diluted 10× with 0.025% Tween 20 in water to obtain a test solution at 200 ppm. A hand-held Devilbliss sprayer was used for spraying a solution to both sides of cotton leaf until runoff. Reference plants (solvent check) were sprayed with the diluent only. Treated plants were held in a holding room for 8-9 days at approximately 82° F. and 50% RH prior to grading. Evaluation was conducted by counting the number of live nymphs per plant under a microscope.
SMILES,mortality at 200 ppm [1] [%],mortality at 200 ppm [2] [%]
"O=C(CCSCCC(F)(F)F)Nc1cn(-c2cccnc2)nc1Cl [Compound 5.5, N-(3-Chloro-1-(pyridin-3-yl)-1H-pyrazol-4-yl)-3-((3,3,3-trifluoropropyl)thio)-propanamide]",80 to 100,0 to 80
"ClC1=NN(c2cccnc2)CC1 [Compound 5a, 3-(3-Chloro-4,5-dihydro-1H-pyrazol-1-yl)pyridine]",0 to 80,0 to 80
"O=C(CCCl)Nc1cn(-c2cccnc2)nc1Cl [Compound 5e, 3-Chloro-N-(3-chloro-1-(pyridine-3-yl)-1H-pyrazol-4-yl)propanamide]",80 to 100,80 to 100
"CCN(C(=O)CCSCCC(F)(F)F)c1cn(-c2cccnc2)nc1Cl [Compound 8.5, N-(3-Chloro-1-(pyridin-3-yl)-1H-pyrazol-4-yl)-N-ethyl-3-((3,3,3-trifluropropyl)thio)propanamide]",80 to 100,80 to 100
"CCN(C(=O)CC[S+]([O-])CCC(F)(F)F)c1cn(-c2cccnc2)nc1Cl (stereo not shown) [Compound 9.5, N-(3-Chloro-1-(pyridin-3-yl)-1H-pyrazol-4-yl)-N-ethyl-3-((3,3,3-trifluropropyl)sulfoxo)propanamide]",80 to 100,80 to 100
